Measured values taken from patent publication US20240397940A1, “COMPOSITIONS COMPRISING A SATURATED OR UNSATURATED ALIPHATIC ACID AND A NON-IONIC SURFACTANT FOR ENHANCING PENETRATION OF PESTICIDE COMPONENT” (TERRAMERA, INC., priority 2021, published 2024).

Columns and labels:
Format in all cases: in vitro ADME
[1] = tested on: waxy cuticles of whole wheat leaves; test: Franz cell leaf penetration of epoxiconazole (Example 7); conditions: 24 h, 50 ppm
Procedure: (§1) This ratio may be expressed based on:
Several donor solutions were prepared to assess penetration of an azole fungicide, namely epoxiconazole, across waxy cuticles of whole wheat leaves. Epoxiconazole TGAI was provided in each donor solution at a rate of 50 ppm. Epoxiconazole is available from MilliporeSigma, St. Louis, MO, USA, and Shanghai Terppon Chemical Co., Ltd., Shanghai, China as a technical grade active ingredient. Certain donor solutions comprised 500 ppm 3-Nonenoic acid.
(§2) The permeation period was 24 hours. […] The powderized leaf was mixed with acetone as a solvent.

[2] = tested on: waxy cuticles of whole wheat leaves; test: Franz cell leaf penetration of 3-Nonenoic acid (Example 5); conditions: penetration ratio of 3-Nonenoic acid (500 ppm), epoxiconazole TGAI 50 ppm and adjuvant 1,000 ppm where included, 24 hours
Procedure: as §1
(§3) Several donor solutions were prepared to assess penetration of 3-Nonenoic acid across waxy cuticles of whole wheat leaves. Each donor solution comprised 500 ppm 3-Nonenoic acid. Certain donor solutions included an azole fungicide, namely epoxiconazole technical grade active ingredient (TGAI) fungicide, each at a rate of 50 ppm. Epoxiconazole is commercially available from MilliporeSigma, St. Louis, MO, USA, as a technical grade active ingredient. […] In this example, the adjuvants tested were non-ionic surfactants comprising C11 linear alcohol ethoxylates (available from Stepan Company of Northfield, IL as Biosoft® N1-5, Biosoft® N1-7, and Biosoft® N1-9).
as §2

[3] = tested on: waxy cuticles of whole wheat leaves; test: Franz cell leaf penetration of 3-Octenoic acid (Example 3); conditions: penetration ratio of 3-Octenoic acid (500 ppm), epoxiconazole TGAI 50 ppm and adjuvant 1,000 ppm where included, 24 hours
Procedure: as §1
as §3, with “3-Octenoic” for “3-Nonenoic”, “N1-5” for “N1-5, Biosoft® N1-7,”, “Biosoft®) N1-7).” for “Biosoft® N1-9).”
as §2

[4] = tested on: waxy cuticles of whole wheat leaves; test: Franz cell leaf penetration of 5-Hexenoic acid (Example 4); conditions: penetration ratio of 5-Hexenoic acid (1,000 ppm), pyraclostrobin 236 ppm (Headline EC) and adjuvant 1,000 ppm where included, 24 hours
Procedure: as §1
Several donor solutions were prepared to assess penetration of 5-Hexenoic acid across waxy cuticles of whole wheat leaves. Each donor solution comprised 1,000 ppm 5-Hexenoic acid (except where otherwise noted). Certain donor solutions included a strobilurin fungicide, namely pyraclostrobin. Such donor solutions comprised Headline® EC, a commercially available fungicide from BASF Corporation comprising pyraclostrobin. Such donor solutions comprised 236 ppm pyraclostrobin. […] In this example, the adjuvants tested were non-ionic surfactants comprising C11 linear alcohol ethoxylates (available from Stepan Company of Northfield, IL as Biosoft® N1-5, Biosoft® N1-7, and Biosoft® N1-9).
as §2

[5] = tested on: waxy cuticles of whole soybean leaves; test: Franz cell leaf penetration of azoxystrobin, Mero (Example 14); conditions: penetration ratio of azoxystrobin (343.5 ppm, Quadris), trans-2-Hexenoic acid 1,500 ppm and Mero 31.3 ppm where included, 24 hours
Procedure: as §1
Several donor solutions were prepared to assess penetration of a strobilurin fungicide, namely azoxystrobin, across waxy cuticles of whole soybean leaves. Each donor solution comprised Quadris®, a commercially available fungicide from Syngenta Crop Protection comprising azoxystrobin. Such donor solutions comprised 343.5 ppm azoxystrobin. Certain donor solutions included 1,500 ppm trans-2-Hexenoic acid.
(§4) The permeation period was 24 hours.

[6] = tested on: waxy cuticles of whole wheat leaves; test: Franz cell leaf penetration of pyraclostrobin, Headline EC (Example 6); conditions: penetration ratio of pyraclostrobin (236 ppm, Headline EC), 5-Hexenoic acid 1,000 ppm and adjuvant 1,000 ppm where included, 24 hours
Procedure: as §1
(§5) Several donor solutions were prepared to assess penetration of a strobilurin fungicide active ingredient, namely pyraclostrobin, across waxy cuticles of whole wheat leaves. Each donor solution comprised Headline® EC, a commercially available fungicide from BASF Corporation comprising pyraclostrobin. Such donor solutions comprised 236 ppm pyraclostrobin. Pyraclostrobin is also commercially available in end-user product form from BASF Corporation as Headline® SC fungicide. Certain donor solutions included 1,000 ppm 5-Hexenoic acid. […] In this example, the adjuvants tested were non-ionic surfactants comprising C11 linear alcohol ethoxylates (available from Stepan Company of Northfield, IL as Biosoft® N1-5, Biosoft® N1-7, and Biosoft® N1-9).
as §2

[7] = tested on: waxy cuticles of whole wheat leaves; test: Franz cell leaf penetration of pyraclostrobin, Headline SC (Example 8); conditions: penetration ratio of pyraclostrobin (236 ppm, Headline SC), 5-Hexenoic acid 1,000 ppm and adjuvant 1,000 ppm where included, 24 hours
Procedure: as §1
as §5, with “SC,” for “EC,”, “pyraclostrobin.” for “pyraclostrobin. Pyraclostrobin is also commercially available in end-user product form from BASF Corporation as Headline® SC fungicide.”, “included an aliphatic acid, namely 5-Hexenoic acid. Such donor solutions comprised” for “included”
as §2

[8] = tested on: waxy cuticles of whole soybean leaves; test: Franz cell leaf penetration of trans-2-Hexenoic acid, Biosoft adjuvants (Example 2); conditions: penetration ratio of trans-2-Hexenoic acid (1,500 ppm), azoxystrobin 343.5 ppm (Quadris) and adjuvant 1,000 ppm where included, 24 hours
Description: as §1
Each donor solution comprised 1,500 ppm trans-2-Hexenoic acid. Certain donor solutions included a strobilurin fungicide, namely azoxystrobin. Such donor solutions comprised Quadris®, a commercially available fungicide from Syngenta Crop Protection comprising azoxystrobin. Such donor solutions comprised 343.5 ppm azoxystrobin. […] In this example, the adjuvants tested were non-ionic surfactants comprising C11 linear alcohol ethoxylates (available from Stepan Company of Northfield, IL as Biosoft® N1-5, Biosoft® N1-7, and Biosoft® N1-9).
as §4

[9] = tested on: waxy cuticles of whole soybean leaves; test: Franz cell leaf penetration of trans-2-Hexenoic acid, Mero (Example 15); conditions: penetration ratio of trans-2-Hexenoic acid (1,500 ppm), azoxystrobin 343.5 ppm (Quadris) and Mero 31.3 ppm where included, 24 hours
Procedure: as §1
Each donor solution comprised 1,500 ppm trans-2-Hexenoic acid. Certain donor solutions included a strobilurin fungicide, namely azoxystrobin. Such donor solutions comprised Quadris®, a commercially available fungicide from Syngenta Crop Protection comprising azoxystrobin. Such donor solutions comprised 343.5 ppm azoxystrobin.
as §4

Fc1ccc([C@]2(Cn3cncn3)O[C@H]2c2ccccc2Cl)cc1 (racemic) [Epoxiconazole, epoxiconazole]
Pesticidal Active Ingredient Penetration [1]: 18.2%

CCCCCC=CCC(=O)O [3-Nonenoic acid]
Aliphatic Acid Penetration [2]: 17.6%

CCCCC=CCC(=O)O [3-octenoic acid, 3-Octenoic acid]
Aliphatic Acid Penetration [3]: 13.4%

C=CCCCC(=O)O [5-Hexenoic acid]
Aliphatic Acid Penetration [4]: 6.8%

CO/C=C(/C(=O)OC)c1ccccc1Oc1cc(Oc2ccccc2C#N)ncn1 [Azoxystrobin, azoxystrobin]
Pesticidal Active Ingredient Penetration [5]: 0.7%

COC(=O)N(OC)c1ccccc1COc1ccn(-c2ccc(Cl)cc2)n1 [Pyraclostrobin, pyraclostrobin]
Pesticidal Active Ingredient Penetration [6]: 7.5% | Pesticidal Active Ingredient Penetration [7]: 7.1%

CCC/C=C/C(=O)O [trans-2-hexenoic acid, trans-2-Hexenoic acid]
Aliphatic Acid Penetration [8]: 13.2% | Aliphatic Acid Penetration [9]: 13.2%
